Entries after “also recorded” stand apart in the source; their conditions may differ.
Columns and labels:
[1] = target: T1, HDPXU17 receptor (P2Y-like receptor) (Homo sapiens, UniProt Q96G91); experiment: Gs reporter gene luciferase assay, HEK 293 cells stably expressing the luciferase reporter, transfected with HDPXU17 DNA; assay type: cell-based; details: for luciferase activity: concentration ranges from 3-300,000 nM, HDPXU17-transfected HEK 293 reporter cells, result in words; for EC50: luciferase activity, HEK 293 MREIIVIPII reporter cells transfected with HDPXU17, 3-300,000 nM
T1 construct: expressed in transfected cells; host or cells: HEK 293 cells stably expressing the MREIIVIPII luciferase reporter gene, transiently transfected with pCDN-HDPXU17 DNA (Lipofectamine)
T1 sequence (Q96G91 1-374): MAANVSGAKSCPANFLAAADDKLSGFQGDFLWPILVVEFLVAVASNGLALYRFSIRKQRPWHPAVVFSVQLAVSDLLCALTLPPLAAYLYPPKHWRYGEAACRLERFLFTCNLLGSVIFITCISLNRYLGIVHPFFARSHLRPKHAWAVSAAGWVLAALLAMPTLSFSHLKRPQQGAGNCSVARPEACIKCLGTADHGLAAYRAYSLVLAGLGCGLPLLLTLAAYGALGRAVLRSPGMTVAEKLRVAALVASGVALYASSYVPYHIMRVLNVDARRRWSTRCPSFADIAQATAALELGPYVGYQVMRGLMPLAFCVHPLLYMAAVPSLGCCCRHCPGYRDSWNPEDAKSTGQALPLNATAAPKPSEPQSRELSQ
From the text: (§1) The Gs reporter gene luciferase assay for orphan G-protein coupled receptors has been developed using a recombinant construct MREIVIPII plasmid, which has been disclosed European Patent Application No. 0 863 214, published on Sep. 9, 1998. This assay utilizes a luciferase gene fused to three copies of multiple response elements (MREs), one copy of cAMP response element (CRE) and the basal promoter of the vasointestinal peptide (VIP) gene to specifically monitor protein kinase A activation that results from an increase in intracellular cAMP. The system is not sensitive to activation of protein kinase C pathways. Rather, it responds to increases in cAMP mediated by endogenous and recombinant Gs-coupled GPCR activation with up to 120-fold increases in luciferase activity.
(§2) The assay begins when HEK 293 cells stably expressing the MREIIVIPII luciferase reporter gene were seeded at 4,500,000 per flask and incubated overnight at 37° C. The next day, solutions A (4 ug of pCDN-HDPXU17DNA was added to 0.8 ml EMEM without serum) and B (23.1 ul Lipofectamine was mixed in 0.8 ml EMEM without serum) were prepared, mixed together and incubated 30 min at room temperature. During the incubation, the culture medium was aspirated from cells and replaced with 12.5 ml serum-free EMEM. Next, the DNA and Lipofectamine mixture was added to the cells and incubated at 37° C. for 6 hours. After 6 hours, 13 ml of EMEM containing 10% FBS was added to the cells and incubated overnight at 37° C. The next day, the 96-well plates were pretreated with 1× Matrixgel solution at 50 ul/well for one hour. Then, the matrixgel solution and plate cells were aspirated at 2000-4000 cells/well. After overnight incubation at 37° C., 5-20 ul /well of the test compounds were added to the 96-well plates and incubated at 37° C. After 6 hours, the medium of each well was aspirated, 25 ul of 1×PBS without calcium and magnesium was added, the plates were frozen at -70° C. Then, the plates were allowed to thaw. Luc-lite solution (25 ul/well) was added and luciferase activity was measured by TopCount HTS.
In stable HDPXU17-expressing 293 cells(clone 20#) cells transiently transfected with MREIIVIPII plasmid, similar results are obtained.

[2] = target: T1, HDPXU17 receptor (P2Y-like receptor); experiment: Gs reporter gene luciferase assay, stable HDPXU17-expressing 293 cells (clone 20#) transiently transfected with MREIIVIPII plasmid; assay type: cell-based; details: for EC50: luciferase activity, stable HDPXU17-expressing 293 cells (clone 20#) transiently transfected with MREIIVIPII plasmid
From the text: as §1
as §2, with “HTS. […]” for “HTS.”

Row | luciferase activity ([2]; stable HDPXU17-expressing 293 cells (clone 20#), result in words) | EC50 [1] [µM] | EC50 [2] [µM] | Structure (SMILES) | luciferase activity [1] | best ligand for HDPXU 17 receptor ([1]; based on results in both transient and stable HDPXU17 cells)
1 | still weak, but specific | – | – | O=c1ccn([C@@H]2O[C@H](COP(=O)(O)OP(=O)(O)OP(=O)(O)O)[C@@H](O)[C@H]2O)c(=O)[nH]1 [UTP, uridine triphosphate] | increase luciferase activity only in cells transfected with the HDPXU17 receptor; also recorded: specific, but weak | –
2 | – | 105 | 200 | Nc1ncnc2c1ncn2[C@H]1C[C@H](O)[C@@H](COP(=O)(O)O)O1 [dAMP, deoxyadenosine monophosphate] | increase luciferase activity only in cells transfected with the HDPXU17 receptor | –
3 | – | 17.3 | 4.05 | Nc1ncnc2c1ncn2[C@H]1C[C@H](O)[C@@H](COP(=O)(O)OP(=O)(O)OP(=O)(O)O)O1 [dATP, deoxyadenosine triphosphate] | increase luciferase activity only in cells transfected with the HDPXU17 receptor | appears to be the best ligand for HDPXU 17 receptor
4 | – | – | – | Nc1ccn([C@H]2C[C@H](O)[C@@H](COP(=O)(O)OP(=O)(O)OP(=O)(O)O)O2)c(=O)n1 [dCTP] | no effect on luciferase activity | –
5 | – | – | – | Nc1nc2c(ncn2[C@H]2C[C@H](O)[C@@H](COP(=O)(O)OP(=O)(O)OP(=O)(O)O)O2)c(=O)[nH]1 [dGTP] | no effect on luciferase activity | –
6 | – | – | – | Cc1cn([C@H]2C[C@H](O)[C@@H](COP(=O)(O)OP(=O)(O)OP(=O)(O)O)O2)c(=O)[nH]c1=O [dTTP] | no effect on luciferase activity | –

Reference: patent US6114127A, “Methods of screening for agonists and antagonists of the HDPXU17 receptor” (SmithKline Beecham Corporation, priority 1998, dated 2000)
